Experimental data as given in publication PMC5047049, “Characterization of a functional C3A liver spheroid model” (Toxicology Research, 2016).
pIC50: −log10 of the molar value. “Also recorded” adds a separate entry of the source. Read-outs that look alike come from different tables or passages of the source.

Assays:
C3A spheroids = assay: Toxicological analysis: Cell Titer-Glo cell viability in C3A spheroids, 4 days with repeat dosing; format: cell-based
Method: Spheroids were created using the liquid overlay technique as previously described.[38] Briefly, 100 μl of sterile 1.5% Agarose (high gelling temperature-Sigma Aldrich) in EMEM was added per well to flat-bottomed 96-well cell culture plates to form a low-adherence surface. Additionally Ultra Low Adherence plates (ULA-Corning) were used as a comparison. C3A cells were seeded at 500, 750, 1000, 1500, 2000 or 2500 cells per well in 100 μl media and left for 72 hours to form spheroids. Media was renewed twice weekly and spheroids were cultured for up to 32 days. Images of spheroids in culture were taken by phase-contrast microscopy through 4× objective and maximum spheroid diameter measured. Spheroids were treated at day 3 of culture with hepatotoxic compounds acetaminophen, fialuridine, diclofenac and trovafloxacin diluted in 0.5% DMSO in EMEM for 4 days with repeat dosing on day 2. Monolayer C3A cells were treated with compounds for 24 hours. Cell viability was analysed using Cell Titer-Glo assay (Promega) according to the manufacturer's instructions and plotted as a percentage of untreated control.

C3A 2D monolayer = assay: Toxicological analysis: Cell Titer-Glo cell viability in C3A 2D monolayer, 24 hours; format: cell-based; conditions: for IC50: Homo sapiens, read-out: IC50 value in C3A 2D monolayer (converted); for IC50 / IC50 value in C3A 2D monolayer: monolayer C3A cells treated for 24 hours
Method: C3A cells were maintained in EMEM (LGC Standards) supplemented with 10% FBS and 1% penicillin–streptomycin under standard cell culture conditions. For 2D monolayer experiments C3A cells were seeded and left to adhere for 24 hours and confirmed to be 100% confluent before analyses. Spheroids were treated at day 3 of culture with hepatotoxic compounds acetaminophen, fialuridine, diclofenac and trovafloxacin diluted in 0.5% DMSO in EMEM for 4 days with repeat dosing on day 2. Monolayer C3A cells were treated with compounds for 24 hours. Cell viability was analysed using Cell Titer-Glo assay (Promega) according to the manufacturer's instructions and plotted as a percentage of untreated control.

HepG2 monolayer cultures = system: HepG2 monolayer cultures; parameters: method as in PMID 9862754; conditions: cited from earlier work
[1] = system: MRP2 and Pgp transporters; assay: Analysis of transporter function with CMFDA substrate in C3A spheroids; format: cell-based; conditions: 30 min
Method: (§1) Spheroids and monolayers were incubated with 5 μM 5-chloromethylfluorescein diacetate (CMFDA-Life Technologies) with or without 25 μM MK571 (MRP inhibitor) and 12.5 μM PSC833 (Pgp inhibitor) in EMEM for 30 min at 37 °C. CMFDA is membrane permeable until it enters cell and is converted to glutathione-methylfluorescein (GSMF), a cell impermeable substrate for MRP and Pgp.[40] Cells and spheroids were washed in PBS and prepared for immunofluorescence as described above.

[2] = system: MRP2 and Pgp transporters; assay: Analysis of transporter function with CMFDA substrate in 2D monolayer C3A cells; format: cell-based; conditions: 5 μM CMFDA, 30 min
Method: as §1

[3] = Homo sapiens, spheroids from 1000 C3A cells, treated at day 3 for 4 days with repeat dosing on day 2, read-out: IC50 value in C3A spheroids

## CC(=O)Nc1ccc(O)cc1 [Paracetamol]
C3A spheroids; 96 h, C3A spheroids, 4 days repeat dosing, read-out: IC50 in spheroids
  pIC50: 2.14
C3A spheroids; [3]
  pIC50: 2.14
C3A 2D monolayer; C3A monolayer, 24 hours, read-out: IC50 in monolayer culture
  pIC50: 1.47
C3A 2D monolayer
  IC50: 33800 µM

## O=C(O)Cc1ccccc1Nc1c(Cl)cccc1Cl [Diclofenac]
C3A spheroids; [3]
  pIC50: 3.53
C3A 2D monolayer
  IC50 value in C3A 2D monolayer: Non toxic
C3A 2D monolayer; listed as diclofenac
  IC50 value in C3A 2D monolayer: did not have a toxic response at the concentrations used
HepG2 monolayer cultures
  pIC50: ~3.12

## CC(=O)Oc1ccc2c(c1)Oc1cc(OC(C)=O)ccc1C21OC(=O)c2cc(CCl)ccc21 [CMFDA, 5-chloromethylfluorescein diacetate]
[1]; 5 μM CMFDA, C3A spheroids
  CMFDA localisation in spheroids: accumulation and co-localisation of the compound within secondary canalicular-like structures; also recorded: accumulation of CMFDA in the bile canalicular structures
[1]; with 25 μM MK571 (MRP inhibitor) and 12.5 μM PSC833 (Pgp inhibitor)
  CMFDA localisation in spheroids with MRP and Pgp transporters blocked: retained in the cell cytoplasm
[2]
  CMFDA localisation in 2D monolayer: retained CMFDA (green) within the cell cytoplasm

## O=c1[nH]c(=O)n([C@@H]2O[C@H](CO)[C@@H](O)[C@@H]2F)cc1I [Fialuridine]
C3A spheroids; [3]
  pIC50: 3.69
C3A 2D monolayer
  IC50: 380 µM

## N[C@@H]1[C@H]2CN(c3nc4c(cc3F)c(=O)c(C(=O)O)cn4-c3ccc(F)cc3F)C[C@@H]12 [Trovafloxacin]
C3A spheroids; [3]
  pIC50: 4.19
C3A 2D monolayer
  IC50: 440 µM
